Results: ChEMBL document CHEMBL1201862, “PubChem BioAssay data set” (2004)
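All cell lines were grown in 96-well plates and treated with compound for 48 hours. GI50 is the concentration that inhibits growth by half.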 Calls of active or inactive are those of the source. No stated cut-off is given here; in the data, active = GI50 up to about 1.1 µM and inactive = higher.

Columns and labels:
Assay in all cases: NCI-60 cell line screen, 48 h
[1] = system: RXF 393
[2] = system: SF-268
[3] = system: SK-OV-3
[4] = system: LXFL 529
[5] = system: KM12
[6] = system: XF498
[7] = system: SK-MEL-2
[8] = system: HOP-92
[9] = system: SK-MEL-28
[10] = system: UACC-257
[11] = system: SNB-75
[12] = system: HOP-62
[13] = system: OVCAR-3
[14] = system: NCI-H23
[15] = system: SK-MEL-5
[16] = system: OVCAR-4
[17] = system: DMS-273
[18] = system: IGROV-1
[19] = system: KM-20L2
[20] = system: Malme-3M
[21] = system: COLO 205
[22] = system: 786-0
[23] = system: SF-539
[24] = system: HCT-15
[25] = system: HT-29
[26] = system: UACC-62
[27] = system: M19-MEL
[28] = system: DMS-114
[29] = system: DLD-1
[30] = system: A498
[31] = system: K562
[32] = system: ACHN
[33] = system: A549
[34] = system: OVCAR-8
[35] = system: HCC 2998
[36] = system: SN12C
[37] = system: SNB-19
[38] = system: LOX IMVI
[39] = system: MOLT-4
[40] = system: OVCAR-5
[41] = system: HOP-18
[42] = system: CAKI-1
[43] = system: UO-31
[44] = system: M14
[45] = system: SW-620
[46] = system: TK-10
[47] = system: U-251
[48] = system: RPMI-8226
[49] = system: NCI-H522
[50] = system: HCT-116
[51] = system: CCRF-CEM
[52] = system: SNB-78
[53] = system: SR
[54] = system: EKVX
[55] = system: NCI-H460
[56] = system: NCI-H226
[57] = system: SF-295
[58] = system: HL-60

Measured: GI50

CC1=N/C(=C\c2ccc(/C=C3/N=C(C)OC3=O)cc2)C(=O)O1
> 100 µM: [24]
inactive: [1] > 100 µM | [2] > 100 µM | [3] > 100 µM | [4] > 100 µM | [5] > 100 µM | [6] > 100 µM | [7] > 100 µM | [8] > 100 µM | [9] > 100 µM | [10] > 100 µM | [11] > 100 µM | [12] > 100 µM | [13] > 100 µM | [14] > 100 µM | [15] > 100 µM | [16] > 100 µM | [17] > 100 µM | [18] > 100 µM | [19] > 100 µM | [20] > 100 µM | [21] > 100 µM | [22] > 100 µM | [23] > 100 µM | [25] > 100 µM | [26] > 100 µM | [27] > 100 µM | [28] > 100 µM | [29] > 100 µM | [30] > 100 µM | [31] > 100 µM | [32] > 100 µM | [33] > 100 µM | [34] > 100 µM | [35] > 100 µM | [36] > 100 µM | [37] > 100 µM | [38] > 100 µM | [39] > 10 µM | [40] > 10 µM | [41] > 100 µM | [42] > 100 µM | [43] > 100 µM | [44] > 100 µM | [45] > 100 µM | [46] > 100 µM | [47] > 100 µM | [48] > 100 µM | [49] > 100 µM | [50] > 100 µM | [51] > 100 µM | [52] > 100 µM

COc1ccc(/C(=C\c2cc(OC)c(OC)c(OC)c2)C(=O)O)cc1
inactive: [1] 18.8 µM | [2] 51.6 µM | [53] 38.8 µM | [4] 41 µM | [5] 25.4 µM | [6] 11.1 µM | [54] 57 µM | [8] 33.8 µM | [9] 76.4 µM | [10] 61 µM | [11] 25.6 µM | [12] 37.1 µM | [13] 32 µM | [15] 16 µM | [16] 85.7 µM | [17] 23.3 µM | [55] 35.6 µM | [18] 48.4 µM | [19] 21 µM | [20] 55.3 µM | [21] 18.3 µM | [22] 38 µM | [23] 14.2 µM | [25] 35.6 µM | [26] 37 µM | [27] 52 µM | [28] 25.2 µM | [29] 40.1 µM | [30] 15.9 µM | [31] 25.8 µM | [32] 72.8 µM | [33] 40.1 µM | [34] 33.5 µM | [36] 37.9 µM | [37] 54.2 µM | [38] 27.5 µM | [39] 27.5 µM | [41] > 100 µM | [42] 30.4 µM | [43] 25.6 µM | [44] 26.6 µM | [56] 28.1 µM | [45] 35 µM | [57] 19.9 µM | [46] 87.9 µM | [47] 44.6 µM | [48] 27.4 µM | [49] 21 µM | [50] 29 µM | [51] 32.5 µM | [58] 21.3 µM | [52] 39 µM
32.1 µM: [24]
